Results on 20 compounds are retold here after US9440982B2 (Eolas Therapeutics, Inc., priority 2012, dated 2016).

For the data set, the target named is T1, CYP3A4 (Homo sapiens, UniProt P08684).
T1 construct: pre-incubated with human liver microsomes and NADPH; from tissue; host or cells: human liver microsomes
T1 sequence (P08684 whole entry): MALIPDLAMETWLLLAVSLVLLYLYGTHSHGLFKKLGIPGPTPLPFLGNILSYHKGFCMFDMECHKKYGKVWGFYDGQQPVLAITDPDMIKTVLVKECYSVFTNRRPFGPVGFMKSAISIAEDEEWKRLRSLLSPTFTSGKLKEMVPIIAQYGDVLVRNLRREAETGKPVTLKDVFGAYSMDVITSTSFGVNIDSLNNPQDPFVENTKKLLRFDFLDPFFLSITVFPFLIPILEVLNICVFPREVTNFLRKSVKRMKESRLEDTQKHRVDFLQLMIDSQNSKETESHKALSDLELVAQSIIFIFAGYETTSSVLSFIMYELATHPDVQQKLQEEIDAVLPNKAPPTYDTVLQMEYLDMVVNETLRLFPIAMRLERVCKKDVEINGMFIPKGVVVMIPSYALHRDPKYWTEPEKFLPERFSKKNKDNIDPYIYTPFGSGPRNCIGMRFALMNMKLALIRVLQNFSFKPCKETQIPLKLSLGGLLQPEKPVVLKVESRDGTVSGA
In words: Cytochrome P450 inhibition assay (midazolam hydroxylation). Type of data set: in vitro ADME. The settings on record: human, human liver microsomes, probe midazolam (hydroxylation to 1′-hydroxymidazolam), 10 μM test compound, midazolam at approximately its Km. As for the experimental part: Compounds were tested for the potential to induce drug-drug interactions by inhibition of the cytochrome P450 3A4 isoform. The assay evaluated the metabolism of a specific marker substrate (CYP3A4, midazolam hydroxylation to 1′-hydroxymidazolam) in the presence or absence of 10 μM test compound. The concentration of the marker substrate was approximately its Km (Dixit et al., Biopharm. Drug Dispos. 2007, 28(5), 257-262). A specific inhibitor for the isoform was included in each run to validate the system. An appropriate positive control inhibitor was used. Mechanism-based inhibition was investigated where warranted using a classical method. To evaluate time-dependent inhibition, parallel samples may have been included where […] was pre-incubated with human liver microsomes and NADPH for 30 min prior to the addition of the P450 substrate. The percent inhibition of the pre-incubated and non-pre-incubated samples were compared as a preliminary evaluation of time-dependent inhibition.
Background: Liver microsomes are vesicles of endoplasmic reticulum, rich in cytochrome P450 enzymes.
Usually inhibition stands for the share of the control response that was lost under treatment. For the compound `Cc1ccc(-c2c(C)noc2C)c(C(=O)N2CCC[C@@H](C)[C@H]2CNc2ccc(C(F)(F)F)cn2)c1` [Example A7, (2-(3,5-Dimethylisoxazol-4-yl)-5-methylphenyl)((2S,3R)-3-methyl-2-(((5-(trifluoromethyl)pyridin-2-yl)amino)methyl)piperidin-1-yl)methanone], the inhibition at 10 µM turned out to be 93%. Regarding `Cc1cccc(C(=O)N2CCC[C@@H](C)[C@H]2CNc2ncc(C(F)(F)F)cn2)c1-n1nccn1` [Example A267, ((2S,3R)-3-Methyl-2-(((5-(trifluoromethyl)pyrimidin-2-yl)amino)methyl)piperidin-1-yl)(3-methyl-2-(2H-1,2,3-triazol-2-yl)phenyl)methanone], the inhibition at 10 µM worked out at 65%.

Compound `Cc1ccc(-c2cnn(C)c2)c(C(=O)N2CCC[C@@H](C)[C@H]2CNc2nnc(C(F)(F)F)s2)c1` [Example A103, ((2S,3R)-3-Methyl-2-(((5-(trifluoromethyl)-1,3,4-thiadiazol-2-yl)amino)methyl)piperidin-1-yl)(5-methyl-2-(1-methyl-1H-pyrazol-4-yl)phenyl)methanone] came in with an inhibition at 10 µM of 95%. For the compound `Cc1ccc(-c2ccccn2)c(C(=O)N2CCC[C@@H](C)[C@H]2CNc2ccc(C(F)(F)F)nn2)n1` [Example A165, ((2S,3R)-3-methyl-2-(((6-(trifluoromethyl)pyridazin-3-yl)amino)methyl)piperidin-1-yl)(6′-methyl-[2,3′-bipyridin]-2′-yl)methanone], testing at 10 µM gave an inhibition of 42%. The compound `Cc1ccc(-n2ccnc2)c(C(=O)N2CCC[C@@H](C)[C@H]2CNc2nc3cc(Cl)ccc3o2)c1` [Example A33, (2-(1H-Imidazol-1-yl)-5-methylphenyl)((2S,3R)-2-(((5-chlorobenzo[d]oxazol-2-yl)amino)methyl)-3-methylpiperidin-1-yl)methanone] registered an inhibition at 10 µM of 98%. Consider `Cc1ccc(-n2nccn2)c(C(=O)N2CCC(F)(F)C[C@H]2CNc2ccc(Cl)cn2)c1` [Example A210, (S)-(2-(((5-Chloropyridin-2-yl)amino)methyl)-4,4-difluoropiperidin-1-yl)(5-methyl-2-(2H-1,2,3-triazol-2-yl)phenyl)methanone], for which at 10 µM the inhibition was 76%. In the case of `Cc1cccc(C(=O)N2CCC[C@@H](C)[C@H]2CNc2ncc(C(F)(F)F)cn2)c1-c1ncccn1` [Example A299, ((2S,3R)-3-Methyl-2-(((5-(trifluoromethyl)pyrimidin-2-yl)amino)methyl)piperidin-1-yl)(3-methyl-2-(pyrimidin-2-yl)phenyl)methanone] it was 51%. Regarding `Cc1ccc(-n2nccn2)c(C(=O)N2CCC[C@@H](C)[C@H]2CNc2ncc3c(C)cccc3n2)c1` [Example A214, ((2S,3R)-3-Methyl-2-(((5-methylquinazolin-2-yl)amino)methyl)piperidin-1-yl)(5-methyl-2-(2H-1,2,3-triazol-2-yl)phenyl)methanone], testing at 10 µM gave an inhibition of 69%. `Cc1ccc(-n2nccn2)c(C(=O)N2CCC[C@@H](C)[C@H]2CNc2cccc(C(F)(F)F)n2)c1` [Example A89, ((2S,3R)-3-Methyl-2-(((6-(trifluoromethyl)pyridin-2-yl)amino)methyl)piperidin-1-yl)(5-methyl-2-(2H-1,2,3-triazol-2-yl)phenyl)methanone] displayed an inhibition at 10 µM of 92%. Consider `Cc1ccc(-c2ccccn2)c(C(=O)N2CCC[C@@H](C)[C@H]2CNc2nc3cc(F)ccc3o2)c1` [Example A128, ((2S,3R)-2-(((5-Fluorobenzo[d]oxazol-2-yl)amino)methyl)-3-methylpiperidin-1-yl)(5-methyl-2-(pyridin-2-yl)phenyl)methanone], for which the inhibition at 10 µM was 88%. In the case of `COc1ncc(-c2ccc(C)cc2C(=O)N2CCC[C@@H](C)[C@H]2CNc2nc3cc(Cl)ccc3o2)cn1` [Example A39, ((2S,3R)-2-(((5-Chlorobenzo[d]oxazol-2-yl)amino)methyl)-3-methylpiperidin-1-yl) (2-(2-methoxypyrimidin-5-yl)-5-methylphenyl)methanone], the inhibition at 10 µM stood at 96%. With `Cc1ccc(-n2cccn2)c(C(=O)N2CCC[C@@H](C)[C@H]2CNc2ncc(F)cn2)c1` [Example A170, ((2S,3R)-2-(((5-Fluoropyrimidin-2-yl)amino)methyl)-3-methylpiperidin-1-yl)(5-methyl-2-(1H-pyrazol-1-yl)phenyl)methanone], testing at 10 µM gave an inhibition of 66%. Take `Cc1cc(C(=O)N2CCC[C@@H](C)[C@H]2CNc2ccc(C(F)(F)F)cn2)c(-n2nccn2)cc1F` [Example A368, (4-Fluoro-5-methyl-2-(2H-1,2,3-triazol-2-yl)phenyl)((2S,3R)-3-methyl-2-(((5-(trifluoromethyl)pyridin-2-yl)amino)methyl)piperidin-1-yl)methanone]: the inhibition at 10 µM came out at 83%. Take `Cc1ccc(-c2cnn(C)c2)c(C(=O)N2CCC[C@@H](C)[C@H]2CNc2ccc(Cl)cn2)c1` [Example A105, ((2S,3R)-2-(((5-Chloropyridin-2-yl)amino)methyl)-3-methylpiperidin-1-yl)(5-methyl-2-(1-methyl-1H-pyrazol-4-yl)phenyl)methanone]: testing at 10 µM gave an inhibition of 96%.

The compound `Cc1ccc(-n2cccn2)c(C(=O)N2CCC[C@@H](C)[C@H]2CNc2ccc(C(F)(F)F)nn2)n1` [Example A164, ((2S,3R)-3-Methyl-2-(((6-(trifluoromethyl)pyridazin-3-yl)amino)methyl)piperidin-1-yl)(6-methyl-3-(1H-pyrazol-1-yl)pyridin-2-yl)methanone] displayed an inhibition at 10 µM of 37%. For `Cc1ccc(-c2nccc(C)n2)c(C(=O)N2CCC[C@@H](C)[C@H]2CNc2nc3cc(Cl)ccc3o2)c1` [Example A35, ((2S,3R)-2-(((5-Chlorobenzo[d]oxazol-2-yl)amino)methyl)-3-methylpiperidin-1-yl)(5-methyl-2-(4-methylpyrimidin-2-yl)phenyl)methanone], at 10 µM the inhibition was 92%. As to `Cc1ccc(-n2ncc(C)n2)c(C(=O)N2CCC[C@@H](C)[C@H]2CNc2nc3cc(F)ccc3o2)c1` [Example A141, ((2S,3R)-2-(((5-Fluorobenzo[d]oxazol-2-yl)amino)methyl)-3-methylpiperidin-1-yl)(5-methyl-2-(4-methyl-2H-1,2,3-triazol-2-yl)phenyl)methanone], the inhibition at 10 µM was determined as 72%.

`Cc1ccc(-n2cncn2)c(C(=O)N2CCC[C@@H](C)[C@H]2CNc2nc3cc(Cl)ccc3o2)c1` [Example A28, ((2S,3R)-2-(((5-Chlorobenzo[d]oxazol-2-yl)amino)methyl)-3-methylpiperidin-1-yl)(5-methyl-2-(1H-1,2,4-triazol-1-yl)phenyl)methanone]: the inhibition at 10 µM was determined as 95%. Take `Cc1ccc(NC[C@@H]2[C@H](C)CCCN2C(=O)c2nc(C)ccc2-n2nccn2)nc1` [Example A196, ((2S,3R)-3-Methyl-2-(((5-methylpyridin-2-yl)amino)methyl)piperidin-1-yl)(6-methyl-3-(2H-1,2,3-triazol-2-yl)pyridin-2-yl)methanone]: testing at 10 µM gave an inhibition of 50%. The compound `Cc1ccc(-n2ccc(C)n2)c(C(=O)N2CCC[C@@H](C)[C@H]2CNc2ccc(C(F)(F)F)cn2)c1` [Example A108, ((2S,3R)-3-Methyl-2-(((5-(trifluoromethyl)pyridin-2-yl)amino)methyl)piperidin-1-yl)(5-methyl-2-(3-methyl-1H-pyrazol-1-yl)phenyl)methanone] had an inhibition at 10 µM of 88%.
